Values quoted from earlier work in US20090176744A1, “Deuterated fingolimod” (CoNCERT Pharmaceuticals, Inc., priority 2007, published 2009).

Assays:
[1] = renal transplant patients; reversible upon cessation of treatment (Tedesco-Silva 2004)
[2] = general finding of cited clinical studies (Kahan 2003; Budde 2002; Ferguson 2003)

Question: Which heart rate [1] does the source give for `CCCCCCCCc1ccc(CCC(N)(CO)CO)cc1.Cl` [fingolimod, 2-amino-2-[2-(4-octylphenyl)ethyl]-1,3-propanediol hydrochloride] here?
Answer: mild and transient reduction in heart rate

Question: And the safety and tolerability [2]?
Answer: safe and well-tolerated
